Measurements from patent US11584710B2, “Compounds for treating infections” (HORITZONTS TECNOLOGICS HUNGARY KORLÁTOLT FELELOSSÉGU …, priority 2017, dated 2023).

Assays:
[1] = system: N. cyriacigeorgica; test: Kirby-Bauer disk diffusion susceptibility test; assay type: cell-based
Description: (§1) Bacterial strains, from clinical origin, were supplied by the National Center for Microbiology, Institute of Health Carlos III (Majadahonda, Madrid). They are detailed in Table 1.
(§2) Bacterial cells suspension in sterile saline was prepared from a culture of 24-72 h, depending on bacterial species, in Mueller-Hinton Agar with 5% sheep blood. Each suspension was adjusted to a fixed size inoculum of 1-5×10^8 CFU/ml with a spectrophotometer (Ferraro, MJ National Committee for Clinical Laboratory Standards. 2000).
(§3) Kirby-Bauer disk diffusion susceptibility test protocol was utilized to determine the sensitivity or resistance of pathogenic bacteria against the compounds and others antibiotics. The absence of growth around the disks is an indirect measure of the ability of this compound to inhibit an organism (Kirby, W., et al., Antibiotics Annu. 1956-1957:892). After 18 to 72 hours of incubation at 37° C., with or without CO2, under aerobic or anaerobic conditions, depending on the bacterial species, halo of growth inhibition were obtained and evaluated.
(§4) Interpretation of susceptibility and resistance was based on the presence or absence of a zone of inhibition surrounding the disk. Kirby-Bauer disk diffusion susceptibility test is a common method which uses antibiotic-impregnated wafers to test whether bacteria are affected by antibiotics. The size of the zone of inhibition depends on how effective the antibiotic is at stopping the growth of the bacterium. A stronger antibiotic will create a larger zone, because a lower concentration of the antibiotic is enough to stop growth.
(§5) All compounds were tested at 300 μg/disc.

[2] = system: N. carnea; test: Kirby-Bauer disk diffusion susceptibility test; assay type: cell-based
Description: as §1, §2, §3, §4, §5

[3] = system: S. pneumoniae; test: Kirby-Bauer disk diffusion susceptibility test; assay type: cell-based
Description: as §1, §2, §3, §4, §5

[4] = system: S. pyogenes; test: Kirby-Bauer disk diffusion susceptibility test; assay type: cell-based; conditions: 300 μg/disc
Description: as §1, §2, §3, §4, §5

[5] = system: K. pneumoniae; test: Kirby-Bauer disk diffusion susceptibility test; assay type: cell-based
Description: as §1, §2, §3, §4, §5

[6] = system: C. difficile; test: Kirby-Bauer disk diffusion susceptibility test; assay type: cell-based
Description: as §1, §2, §3, §4, §5

[7] = system: T. pulmonis; test: Kirby-Bauer disk diffusion susceptibility test; assay type: cell-based
Description: as §1, §2, §3, §4, §5

[8] = system: E. cloacae; test: Kirby-Bauer disk diffusion susceptibility test; assay type: cell-based; conditions: 300 μg
Description: as §1, §2, §3, §4, §5

[9] = system: A. baumannii; test: Kirby-Bauer disk diffusion susceptibility test; assay type: cell-based; conditions: 300 μg
Description: as §1, §2, §3, §4, §5

[10] = system: S. epidermidis; test: Kirby-Bauer disk diffusion susceptibility test; assay type: cell-based; conditions: 300 μg
Description: as §1, §2, §3, §4, §5

[11] = system: M. abscessus; test: Kirby-Bauer disk diffusion susceptibility test; assay type: cell-based; conditions: 300 μg
Description: as §1, §2, §3, §4, §5

[12] = system: E. faecium; test: Kirby-Bauer disk diffusion susceptibility test; assay type: cell-based; conditions: 300 μg
Description: as §1, §2, §3, §4, §5

[13] = system: P. aeruginosa; test: Kirby-Bauer disk diffusion susceptibility test; assay type: cell-based; conditions: 300 μg
Description: as §1, §2, §3, §4, §5

[14] = system: E. coli; test: Kirby-Bauer disk diffusion susceptibility test; assay type: cell-based; conditions: 300 μg
Description: as §1, §2, §3, §4, §5

[15] = system: E. faecalis; test: Kirby-Bauer disk diffusion susceptibility test; assay type: cell-based; conditions: E. foecalis; 300 μg
Description: as §1, §2, §3, §4, §5

[16] = system: S. cerevisiae; design: key: I = intermediate activity; S = susceptibility; R = Resistance; conditions: S. cerevisiae clinical strain; cited from earlier work
[17] = system: C. glabrata; design: key: I = intermediate activity; S = susceptibility; R = Resistance; conditions: C. glabrata clinical strain; cited from earlier work
[18] = system: C. parapsilosis; design: key: I = intermediate activity; S = susceptibility; R = Resistance; conditions: C. parapsilosis clinical strain; cited from earlier work
[19] = system: C. Krusei; design: key: I = intermediate activity; S = susceptibility; R = Resistance; conditions: C. Krusei clinical strain; cited from earlier work
[20] = system: C. guillermondii; design: key: I = intermediate activity; S = susceptibility; R = Resistance; conditions: C. guillermondii clinical strain; cited from earlier work
[21] = system: C. tropicalis; design: key: I = intermediate activity; S = susceptibility; R = Resistance; conditions: C. tropicalis clinical strain; cited from earlier work
[22] = system: A. fumigatus; design: key: I = intermediate activity; S = susceptibility; R = Resistance; conditions: A. fumigatus clinical strain; cited from earlier work
[23] = system: A. terreus; design: key: I = intermediate activity; S = susceptibility; R = Resistance; conditions: A. terreus clinical strain; cited from earlier work
[24] = system: C. lusitaniae; design: key: I = intermediate activity; S = susceptibility; R = Resistance; conditions: C. lusitaniae clinical strain; cited from earlier work
[25] = system: A. niger; design: key: I = intermediate activity; S = susceptibility; R = Resistance; conditions: A. niger clinical strain; cited from earlier work
[26] = system: A. terreus; test: Antifungal disk diffusion susceptibility test (CLSI M44); assay type: cell-based; conditions: Aspergillus terreus, read-out: Activity (mm)
Description: (§6) Filamentous fungi and yeasts strains, from clinical origin, were supplied by Microbiology Service from The Princess Hospital, Madrid. They are detailed in Table IX.
(§7) Filamentous fungi and yeast cells suspensions in distilled water was prepared from a culture of 24-48 h, depending on species, in Sabouraud agar. Each suspension was adjusted to a fixed size inoculum of 1-5×10^8 CFU/ml with a spectrophotometer (Ferraro, MJ National Committee for Clinical Laboratory Standards. 2000).
(§8) Antifungal susceptibility tests were developed following the standardized methodology detailed in document CLSI: M44-4: Method for Antifungal Disk diffusion susceptibility testing of yeasts consisting of disk diffusion on agar Muller-Hinton (supplemented with 2% glucose).

[27] = system: C. albicans; test: as above; assay type: cell-based; conditions: Candida albicans, read-out: Activity (mm)
Description: as §6, §7, §8

[28] = system: C. lusitaniae; test: as above; assay type: cell-based; conditions: Clavispora lusitaniae, read-out: Activity (mm)
Description: as §6, §7, §8

[29] = system: C. tropicalis; test: as above; assay type: cell-based; conditions: Candida tropicalis, read-out: Activity (mm)
Description: as §6, §7, §8

[30] = system: S. cerevisiae; test: as above; assay type: cell-based; conditions: Saccharomyces cerevisiae, read-out: Activity (mm)
Description: as §6, §7, §8

[31] = system: A. niger; test: as above; assay type: cell-based; conditions: Aspergillus niger, read-out: Activity (mm)
Description: as §6, §7, §8

[32] = system: C. parapsilosis; test: as above; assay type: cell-based; conditions: Lodderomyces parapsilosis, read-out: Activity (mm)
Description: as §6, §7, §8

[33] = system: A. flavus; test: as above; assay type: cell-based; conditions: Aspergillus flavus, read-out: Activity (mm)
Description: as §6, §7, §8

[34] = system: C. guillermondii; test: as above; assay type: cell-based; conditions: read-out: Activity (mm)
Description: as §6, §7, §8

[35] = system: A. fumigatus; test: as above; assay type: cell-based; conditions: Aspergillus fumigatus, read-out: Activity (mm)
Description: as §6, §7, §8

[36] = system: A. flavus; design: key: I = intermediate activity; S = susceptibility; R = Resistance; conditions: A. flavus clinical strain; cited from earlier work
[37] = system: C. albicans; design: key: I = intermediate activity; S = susceptibility; R = Resistance; conditions: C. albicans clinical strain; cited from earlier work

NNC(=O)C(=O)NOc1ccccc1 [MSG-196]
Activity detected (mm) ([1]; 300 μg/disc): 34 mm | Activity detected (mm) ([2]; 300 μg/disc): 30 mm | Activity detected (mm) ([3]; 300 μg/disc): 20 mm | Activity detected (mm) [4]: 20 mm | Activity detected (mm) ([5]; 300 μg/disc): 13 mm | Activity detected (mm) ([6]; 300 μg/disc): 18 mm | Activity detected (mm) ([7]; 300 μg/disc): 22 mm

COc1ccccc1NNC(=O)C(=O)NN [MSG-235]
Antibiotic activity (Table VIII, zone of inhibition) [8]: 11 mm | Antibiotic activity (Table VIII, zone of inhibition) [9]: 15 mm | Antibiotic activity (Table VIII, zone of inhibition) [10]: 27 mm | Antibiotic activity (Table VIII, zone of inhibition) ([1]; 300 μg): 29 mm | Antibiotic activity (Table VIII, zone of inhibition) [11]: 23 mm | Antibiotic activity (Table VIII, zone of inhibition) [12]: 22 mm | Antibiotic activity (Table VIII, zone of inhibition) ([2]; 300 μg): 34 mm | Antibiotic activity (Table VIII, zone of inhibition) [13]: 11 mm | Antibiotic activity (Table VIII, zone of inhibition) ([3]; 300 μg): 21 mm | Antibiotic activity (Table VIII, zone of inhibition) [14]: 14 mm | Antibiotic activity (Table VIII, zone of inhibition) [15]: 25 mm | Antibiotic activity (Table VIII, zone of inhibition) ([5]; 300 μg): 12 mm | Antibiotic activity (Table VIII, zone of inhibition) ([6]; 300 μg): 20 mm | Antibiotic activity (Table VIII, zone of inhibition) ([7]; 300 μg): 24 mm

CC(=O)N1CCN(c2ccc(OCC3COC(Cn4ccnc4)(c4ccc(Cl)cc4Cl)O3)cc2)CC1 (stereo not shown) [Ket, ketoconazole]
Susceptibility of the strain [16]: S | Susceptibility of the strain [17]: S | Susceptibility of the strain [18]: S | Susceptibility of the strain [19]: S | Susceptibility of the strain [20]: R | Susceptibility of the strain [21]: S | Susceptibility of the strain [22]: S | Susceptibility of the strain [23]: S | Susceptibility of the strain [24]: S | Susceptibility of the strain [25]: S | zone of inhibition at 50 µg/disc [26]: 26 mm | zone of inhibition at 50 µg/disc [27]: 22 mm | zone of inhibition at 50 µg/disc [28]: 41 mm | zone of inhibition at 50 µg/disc [29]: 25 mm | zone of inhibition at 50 µg/disc [30]: 30 mm | zone of inhibition at 50 µg/disc [31]: 25 mm | zone of inhibition at 50 µg/disc [32]: 42 mm | zone of inhibition at 50 µg/disc [33]: 32 mm | zone of inhibition at 50 µg/disc [34]: 44 mm | zone of inhibition at 50 µg/disc [35]: 22 mm | Susceptibility of the strain [36]: S | Susceptibility of the strain [37]: S
